# Patent publication US9539252B2, “Piperazine-substituted benzothiophene derivatives as antipsychotic agents” (OTSUKA PHARMACEUTICAL CO., LTD., priority 2011, dated 2017)
# Test: Solubility in oil (sesame oil, benzyl benzoate), visual observation
# Settings: oil or lipid, thermodynamic from solid
# Experimental: Each of the Example compounds was examined for the solubility in oil (sesame oil, benzyl benzoate).
# For the specific gravity of an oil, the following values were applied. • sesame oil (specific gravity: 0.914-0.921) • benzyl benzoate (specific gravity: 1.123) • (Method)
# Example compound is measured in a microtube and an oil (sesame oil, or, benzyl benzoate) in an amount to make the concentration 10 mg/0.1 ml is added. After stirring, the solubility is evaluated by visual observation. When the compound is not dissolved, the mixture is heated, and the solubility is evaluated after cooling.
Structure (SMILES),solubility (benzyl benzoate) [mg/mL],solubility (sesame oil) [mg/mL]
"CCCCCCCCCCCCCCCCCCNC(=O)OCn1c(=O)ccc2ccc(OCCCCN3CCN(c4cccc5sccc45)CC3)cc21 [Example 38, N-octadecylcarbamic acid 7-[4-(4-benzo[b]thiophen-4-ylpiperazin-3-yl)butoxy]-2-oxo-2H-quinolin-1-ylmethyl ester]",> 100,
"CCCCN(C)C(=O)OCn1c(=O)ccc2ccc(OCCCCN3CCN(c4cccc5sccc45)CC3)cc21 [Example 36, N-butyl-N-methylcarbamic acid 7-[4-(4-benzo[b]thiophen-4-ylpiperazin-1-yl)butoxy]-2-oxo-2H-quinolin-1-ylmethyl ester]",> 100,
"CCCCOC(=O)OCn1c(=O)ccc2ccc(OCCCCN3CCN(c4cccc5sccc45)CC3)cc21 [Example 168, carbonic acid 7-[4-(4-benzo[b]thiophen-4-ylpiperazin-1-yl)butoxy]-2-oxo-2H-quinolin-1-ylmethyl ester butyl ester]",> 100,
"CC(C)(C)OC(=O)CC(=O)OCN1C(=O)CCc2ccc(OCCCCN3CCN(c4cccc5sccc45)CC3)cc21 [Example 121, malonic acid 7-[4-(4-benzo[b]thiophen-4-ylpiperazin-1-yl)butoxy]-2-oxo-3,4-dihydro-2H-quinolin-1-ylmethyl ester tert-butyl ester]",> 100,
"CCC(C)C(=O)OCN1C(=O)CCc2ccc(OCCCCN3CCN(c4cccc5sccc45)CC3)cc21 (stereo not drawn) [Example 77, 2-methylbutyric acid 7-[4-(4-benzo[b]thiophen-4-ylpiperazin-1-yl)butoxy]-2-oxo-3,4-dihydro-2H-quinolin-1-ylmethyl ester]",> 100,
"O=C(OCN1C(=O)CCc2ccc(OCCCCN3CCN(c4cccc5sccc45)CC3)cc21)c1ccoc1 [Example 96, furan-3-carboxylic acid 7-[4-(4-benzo[b]thiophen-4-ylpiperazin-1-yl)butoxy]-2-oxo-3,4-dihydro-2H-quinolin-1-ylmethyl ester]",> 100,
"CCCCCCCCCCCCCCCC(=O)OCN1C(=O)CCc2ccc(OCCCCN3CCN(c4cccc5sccc45)CC3)cc21 [Example 23, hexadecanoic acid 7-[4-(4-benzo[b]thiophen-4-ylpiperazin-1-yl)butoxy]-2-oxo-3,4-dihydro-2H-quinolin-1-ylmethyl ester]",> 100,
"CCCCCCCCCCCCOC(=O)OCn1c(=O)ccc2ccc(OCCCCN3CCN(c4cccc5sccc45)CC3)cc21 [Example 134, carbonic acid 7-[4-(4-benzo[b]thiophen-4-ylpiperazin-1-yl)butoxy]-2-oxo-2H-quinolin-1-ylmethyl ester dodecyl ester]",> 100,> 100
"CCCC(=O)OCN1C(=O)CCc2ccc(OCCCCN3CCN(c4cccc5sccc45)CC3)cc21 [Example 19, butyric acid 7-[4-(4-benzo[b]thiophen-4-ylpiperazin-1-yl)butoxy]-2-oxo-3,4-dihydro-2H-quinolin-1-ylmethyl ester]",> 100,
"CCCCCCCCCCOC(=O)OCN1C(=O)CC(C)(C)c2ccc(OCCCCN3CCN(c4cccc5sccc45)CC3)cc21 [Example 156, carbonic acid 7-[4-(4-benzo[b]thiophen-4-ylpiperazin-1-yl)-butoxy]-4,4-dimethyl-2-oxo-3,4-dihydro-2H-quinolin-1-ylmethyl ester decyl ester]",> 100,> 100
"CCCCCCCCCCCC(=O)OCN1C(=O)CCc2ccc(OCCCCN3CCN(c4cccc5sccc45)CC3)cc21 [Example 21, dodecanoic acid 7-[4-(4-benzo[b]thiophen-4-ylpiperazin-1-yl)butoxy]-2-oxo-3,4-dihydro-2H-quinolin-1-ylmethyl ester]",> 100,> 100
"CNC(=O)OCn1c(=O)ccc2ccc(OCCCCN3CCN(c4cccc5sccc45)CC3)cc21 [Example 53, N-methylcarbamic acid 7-[4-(4-benzo[b]thiophen-4-ylpiperazin-1-yl)butoxy]-2-oxo-2H-quinolin-1-ylmethyl ester]",> 100,
